These results are taken from patent US20070111328A1, “Scintillation proximity assay for the identification of P-glycoprotein modulators” (priority 2005, published 2007).

Data set [1] deals with T1, P-glycoprotein (P-gp) (Homo sapiens, UniProt P08183). The experiment in a line: Scintillation proximity assay (SPA): competition with [3H]vinblastine binding to P-gp in KB-V1 cell membranes. The following applies: mean of triplicates; for effect of test compound on P-gp specific binding signal: test compound 10 μM final concentration, FIG. 8. (In general: Scintillation proximity formats need no separation of bound from free tracer.)
Procedure: The samples were incubated for an additional 3 to 24-hours.
The methods described herein are based on the scintillation proximity assay (SPA) technique and its use to detect signal changes in the presence of a test compound. […] The signal should be reduced when the test compound is a P-gp substrate and/or inhibitor because of competition on the binding site or inhibition of the binding.

The target of data set [2] is T1, P-glycoprotein (P-gp). The experiment in a line: SPA saturation binding of [3H]-vinblastine to P-gp (KB-V1 cell membranes). Details: endogenous in cells; host or cells: KB-V1 cells (multidrug-resistant subclone of KB-3-1, HeLa-derived); sucrose-gradient purified plasma membranes. The following applies: [3H]-vinblastine 5 to 55 nM, specific binding fitted with Prism; read-out: KD (binding dissociation constant). As for the experimental part: The specific signal values versus the amount of radioligand was fitted to the equation using the Prism software (GraphPad Software Inc, San Diego, Calif.) as the following: [formula] where Bmax is the maximal binding, [L] is a ligand concentration, and KD is the binding dissociation constant. The fitting gave the KD value of 4 nM, which is in agreement with literature data.

T1 sequence (P08183 whole entry): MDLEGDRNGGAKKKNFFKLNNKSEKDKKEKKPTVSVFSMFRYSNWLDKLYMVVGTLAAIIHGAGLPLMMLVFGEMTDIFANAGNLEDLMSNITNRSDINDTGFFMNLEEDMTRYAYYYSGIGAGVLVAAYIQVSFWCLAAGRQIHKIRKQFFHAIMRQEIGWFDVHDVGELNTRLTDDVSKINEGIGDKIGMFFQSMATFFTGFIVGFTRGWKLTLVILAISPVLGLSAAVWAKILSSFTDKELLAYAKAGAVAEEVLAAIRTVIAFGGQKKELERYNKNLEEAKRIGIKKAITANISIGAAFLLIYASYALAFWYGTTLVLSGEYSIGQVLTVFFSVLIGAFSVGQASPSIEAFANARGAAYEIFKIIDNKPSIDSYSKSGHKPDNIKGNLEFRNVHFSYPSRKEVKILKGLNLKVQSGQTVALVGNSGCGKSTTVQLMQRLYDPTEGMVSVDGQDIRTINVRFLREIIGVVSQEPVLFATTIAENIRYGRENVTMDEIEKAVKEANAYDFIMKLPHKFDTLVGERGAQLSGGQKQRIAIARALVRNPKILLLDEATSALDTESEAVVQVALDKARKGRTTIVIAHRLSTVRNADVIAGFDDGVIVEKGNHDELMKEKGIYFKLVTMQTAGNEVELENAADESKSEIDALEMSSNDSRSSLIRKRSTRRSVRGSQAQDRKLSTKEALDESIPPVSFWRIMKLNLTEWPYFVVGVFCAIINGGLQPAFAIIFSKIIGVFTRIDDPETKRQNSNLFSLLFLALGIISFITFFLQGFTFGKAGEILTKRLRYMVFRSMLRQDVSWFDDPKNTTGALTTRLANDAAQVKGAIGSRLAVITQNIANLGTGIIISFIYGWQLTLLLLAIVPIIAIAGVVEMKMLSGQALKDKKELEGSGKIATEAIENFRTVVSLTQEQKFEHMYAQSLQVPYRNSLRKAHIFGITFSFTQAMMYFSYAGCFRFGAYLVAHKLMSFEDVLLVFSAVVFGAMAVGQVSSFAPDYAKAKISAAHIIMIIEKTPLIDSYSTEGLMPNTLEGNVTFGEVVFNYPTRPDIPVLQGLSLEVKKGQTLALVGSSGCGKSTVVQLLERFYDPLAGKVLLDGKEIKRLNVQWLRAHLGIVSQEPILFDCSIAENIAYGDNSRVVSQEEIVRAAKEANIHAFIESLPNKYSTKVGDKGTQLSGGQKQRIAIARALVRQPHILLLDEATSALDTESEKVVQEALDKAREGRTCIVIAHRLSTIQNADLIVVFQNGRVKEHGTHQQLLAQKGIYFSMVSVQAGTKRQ

With `Cn1c(=O)c2c(ncn2C)n(C)c1=O` [caffeine], the “effect of test compound on P-gp specific binding signal” value on P-glycoprotein (P-gp) [1] is listed as “no impact on the P-gp signal”. Same read-out and setting: with `COc1cccc2c1C(=O)c1c(O)c3c(c(O)c1C2=O)C[C@@](O)(C(=O)CO)C[C@@H]3O[C@H]1C[C@H](N)[C@H](O)[C@H](C)O1` [doxorubicin] the entry was “did not appear to interfere with the P-gp signal”. One may read the Kd as the free concentration of one partner at which half of the binding sites on the other are occupied at equilibrium, for simple one-to-one binding. `CC[C@]1(O)C[C@@H]2CN(CCc3c([nH]c4ccccc34)[C@@](C(=O)OC)(c3cc4c(cc3OC)N(C)[C@H]3[C@@](O)(C(=O)OC)[C@H](OC(C)=O)[C@]5(CC)C=CCN6CC[C@]43[C@@H]65)C2)C1` [[^3H]-vinblastine]: the dissociation constant (Kd) on P-glycoprotein (P-gp) [2] is 4 nM. Regarding `CN(Cc1cnc2nc(N)nc(N)c2n1)c1ccc(C(=O)N[C@@H](CCC(=O)O)C(=O)O)cc1` [methotrexate], the “effect of test compound on P-gp specific binding signal” value on P-glycoprotein (P-gp) [1] is listed as “did not appear to interfere with the P-gp signal”.

As usually defined, the IC50 is the point on the concentration scale where inhibition reaches its midpoint. In the case of Ivermectin, on P-glycoprotein (P-gp) [1] (read-out: IC50 values determined by SPA, inhibition of [3H]vinblastine binding to P-gp, KB-V1 membranes, WGA-Ysi beads, PRISM fit), the IC50 turned out to be 362 nM.
